# Reference: patent US10004701B2, “Methods and compositions for treating infection” (UNIVERSITY OF ROCHESTER, priority 2012, dated 2018)
# Counter-ions that a name gives are not always drawn. Like-named read-outs stand apart in the source and are kept apart here.
# Legend:
# Test in all cases: AK assay 384-well format, Prestwick library screening
# E. faecium = assay type: cell-based, Enterococcus faecium; conditions: 50 μM final drug concentration; for fold induction at 50 µM: Enterococcus faecium, 3 h
# [1] = tested on: A. baumannii strain 98-37-09; assay type: cell-based, Acinetobacter baumannii; conditions: 50 μM final drug concentration; for fold induction at 50 µM: Acinetobacter baumannii, 983709, 3 h
# E. cloacae = assay type: cell-based, Enterobacter cloacae; conditions: 50 μM final drug concentration; for fold induction at 50 µM: Enterobacter cloacae, 3 h
# P. aeruginosa = assay type: cell-based, Pseudomonas aeruginosa; conditions: 50 μM final drug concentration; for fold induction at 50 µM: Pseudomonas aeruginosa, 3 h
# K. pneumoniae = assay type: cell-based, Klebsiella pneumoniae; conditions: 50 μM final drug concentration; for fold induction at 50 µM: Klebsiella pneumoniae, 3 h
# [2] = tested on: S. aureus strain USA300-0114; assay type: cell-based, Staphylococcus aureus; conditions: 50 μM final drug concentration; for fold induction at 50 µM: Staphylococcus aureus, USA300, 3 h
# E. coli = assay type: cell-based, Escherichia coli; conditions: 50 μM final drug concentration; for fold induction at 50 µM: Escherichia coli, 3 h
# [3] = planktonic, […], read-out: AK-based Prestwick Library Screening Results, E. faecium (fold increase in extracellular AK activity)
# [4] = planktonic, […], read-out: AK-based Prestwick Library Screening Results, A. baumannii (fold increase in extracellular AK activity)
# [5] = planktonic, […], read-out: AK-based Prestwick Library Screening Results, E. cloacae (fold increase in extracellular AK activity)
# [6] = planktonic, […], read-out: AK-based Prestwick Library Screening Results, P. aeruginosa (fold increase in extracellular AK activity)
# [7] = planktonic, […], read-out: AK-based Prestwick Library Screening Results, K. pneumoniae (fold increase in extracellular AK activity)
# [8] = planktonic, […], read-out: AK-based Prestwick Library Screening Results, S. aureus (fold increase in extracellular AK activity)
# [9] = planktonic, […], read-out: AK-based Prestwick Library Screening Results, E. coli (fold increase in extracellular AK activity)
smiles,measurement,setting,value
CN[C@@H]1[C@@H](O)[C@@H](O[C@@H]2[C@@H](O)[C@H](O[C@H]3OC(CN)=CC[C@H]3N)[C@@H](N)C[C@H]2N)OC[C@]1(C)O [Sisomicin sulfate],fold induction at 50 µM,"E. faecium; planktonic E. faecium, cutoff for positive-scoring molecules 3-fold increase, read-out: AK-based Prestwick Library Screening Results, E. faecium (increase in extracellular AK activity)",0.9
same,fold induction at 50 µM,"[1]; planktonic A. baumannii, cutoff for positive-scoring molecules 3-fold increase, read-out: AK-based Prestwick Library Screening Results, A. baumannii (increase in extracellular AK activity)",0.9
same,fold induction at 50 µM,"E. cloacae; planktonic E. cloacae, cutoff for positive-scoring molecules 3-fold increase, read-out: AK-based Prestwick Library Screening Results, E. cloacae (increase in extracellular AK activity)",1
same,fold induction at 50 µM,"P. aeruginosa; planktonic P. aeruginosa, cutoff for positive-scoring molecules 3-fold increase, read-out: AK-based Prestwick Library Screening Results, P. aeruginosa (increase in extracellular AK activity)",0.9
same,fold induction at 50 µM,"K. pneumoniae; planktonic K. pneumoniae, cutoff for positive-scoring molecules 3-fold increase, read-out: AK-based Prestwick Library Screening Results, K. pneumoniae (increase in extracellular AK activity)",0.6
same,fold induction at 50 µM,"[2]; planktonic S. aureus, cutoff for positive-scoring molecules 3-fold increase, read-out: AK-based Prestwick Library Screening Results, S. aureus (increase in extracellular AK activity)",0.6
same,fold induction at 50 µM,"E. coli; planktonic E. coli, cutoff for positive-scoring molecules 3-fold increase, read-out: AK-based Prestwick Library Screening Results, E. coli (increase in extracellular AK activity)",0.8
COc1ccc2c(OC)c3ccoc3nc2c1OC [Skimmianine],fold induction at 50 µM,E. faecium; [3],0.6
same,fold induction at 50 µM,[1]; [4],0.5
same,fold induction at 50 µM,E. cloacae; [5],1.1
same,fold induction at 50 µM,P. aeruginosa; [6],0.6
same,fold induction at 50 µM,K. pneumoniae; [7],0.5
same,fold induction at 50 µM,[2]; [8],0.6
same,fold induction at 50 µM,E. coli; [9],0.6
CC1CCC2C(C)C3C(CC4C5CC=C6CC(OC7OC(CO)C(O)C(OC8OC(CO)C(O)C(O)C8O)C7OC7OC(C)C(O)C(O)C7O)CCC6(C)C5CCC43C)N2C1 (stereo not drawn) [Solanine alpha],"AK-based Prestwick Library Screening Results, E. faecium (fold increase in extracellular AK activity)","E. faecium; planktonic, […]",1.0
same,"AK-based Prestwick Library Screening Results, A. baumannii (fold increase in extracellular AK activity)","[1]; planktonic, […]",1.3
same,"AK-based Prestwick Library Screening Results, E. cloacae (fold increase in extracellular AK activity)","E. cloacae; planktonic, […]",1.7
same,"AK-based Prestwick Library Screening Results, P. aeruginosa (fold increase in extracellular AK activity)","P. aeruginosa; planktonic, […]",1.2
same,"AK-based Prestwick Library Screening Results, K. pneumoniae (fold increase in extracellular AK activity)","K. pneumoniae; planktonic, […]",1.2
same,"AK-based Prestwick Library Screening Results, S. aureus (fold increase in extracellular AK activity)","[2]; planktonic, […]",1.2
same,"AK-based Prestwick Library Screening Results, E. coli (fold increase in extracellular AK activity)","E. coli; planktonic, […]",1.2
C[C@@H]1CC[C@@]2(NC1)O[C@H]1C[C@H]3[C@@H]4CC=C5C[C@@H](O)CC[C@]5(C)[C@H]4CC[C@]3(C)[C@H]1[C@@H]2C [Solasodine],fold induction at 50 µM,E. faecium; [3],0.9
same,fold induction at 50 µM,[1]; [4],0.7
same,fold induction at 50 µM,E. cloacae; [5],0.9
same,fold induction at 50 µM,P. aeruginosa; [6],1
same,fold induction at 50 µM,K. pneumoniae; [7],0.7
same,fold induction at 50 µM,[2]; [8],0.6
same,fold induction at 50 µM,E. coli; [9],1
CC(C)NCC(O)c1ccc(NS(C)(=O)=O)cc1 (stereo not drawn) [Sotalol hydrochloride],fold induction at 50 µM,"E. faecium; cutoff for positive-scoring molecules 3-fold increase, read-out: AK-based Prestwick Library Screening Results, E. faecium (fold increase in extracellular AK activity)",0.8
same,fold induction at 50 µM,"[1]; cutoff for positive-scoring molecules 3-fold increase, read-out: AK-based Prestwick Library Screening Results, A. baumannii (fold increase in extracellular AK activity)",0.5
same,fold induction at 50 µM,"E. cloacae; cutoff for positive-scoring molecules 3-fold increase, read-out: AK-based Prestwick Library Screening Results, E. cloacae (fold increase in extracellular AK activity)",0.4
same,fold induction at 50 µM,"P. aeruginosa; cutoff for positive-scoring molecules 3-fold increase, read-out: AK-based Prestwick Library Screening Results, P. aeruginosa (fold increase in extracellular AK activity)",0.4
same,fold induction at 50 µM,"K. pneumoniae; cutoff for positive-scoring molecules 3-fold increase, read-out: AK-based Prestwick Library Screening Results, K. pneumoniae (fold increase in extracellular AK activity)",0.5
same,fold induction at 50 µM,"[2]; cutoff for positive-scoring molecules 3-fold increase, read-out: AK-based Prestwick Library Screening Results, S. aureus (fold increase in extracellular AK activity)",0.4
same,fold induction at 50 µM,"E. coli; cutoff for positive-scoring molecules 3-fold increase, read-out: AK-based Prestwick Library Screening Results, E. coli (fold increase in extracellular AK activity)",0.4
C1CCN2C[C@@H]3C[C@@H](CN4CCCC[C@@H]34)[C@H]2C1 [Sparteine (−)],"AK-based Prestwick Library Screening Results, E. faecium (fold increase in extracellular AK activity)","E. faecium; planktonic, […]",1.0
same,"AK-based Prestwick Library Screening Results, A. baumannii (fold increase in extracellular AK activity)","[1]; planktonic, […]",1.0
same,"AK-based Prestwick Library Screening Results, E. cloacae (fold increase in extracellular AK activity)","E. cloacae; planktonic, […]",1.7
same,"AK-based Prestwick Library Screening Results, P. aeruginosa (fold increase in extracellular AK activity)","P. aeruginosa; planktonic, […]",1.0
same,"AK-based Prestwick Library Screening Results, K. pneumoniae (fold increase in extracellular AK activity)","K. pneumoniae; planktonic, […]",1.0
same,"AK-based Prestwick Library Screening Results, S. aureus (fold increase in extracellular AK activity)","[2]; planktonic, […]",1.1
same,"AK-based Prestwick Library Screening Results, E. coli (fold increase in extracellular AK activity)","E. coli; planktonic, […]",1.3
CN[C@@H]1[C@H](O)[C@H](NC)[C@H]2O[C@@]3(O)C(=O)C[C@@H](C)O[C@H]3O[C@@H]2[C@H]1O [Spectinomycin dihydrochloride],fold induction at 50 µM,"E. faecium; planktonic, cutoff for positive-scoring molecules 3-fold increase, read-out: AK-based Prestwick Library Screening Results, E. faecium (fold increase in extracellular AK activity)",1
same,fold induction at 50 µM,"[1]; planktonic, cutoff for positive-scoring molecules 3-fold increase, read-out: AK-based Prestwick Library Screening Results, A. baumannii (fold increase in extracellular AK activity)",0.5
same,fold induction at 50 µM,"E. cloacae; planktonic, cutoff for positive-scoring molecules 3-fold increase, read-out: AK-based Prestwick Library Screening Results, E. cloacae (fold increase in extracellular AK activity)",0.6
same,fold induction at 50 µM,"P. aeruginosa; planktonic, cutoff for positive-scoring molecules 3-fold increase, read-out: AK-based Prestwick Library Screening Results, P. aeruginosa (fold increase in extracellular AK activity)",0.5
same,fold induction at 50 µM,"K. pneumoniae; planktonic, cutoff for positive-scoring molecules 3-fold increase, read-out: AK-based Prestwick Library Screening Results, K. pneumoniae (fold increase in extracellular AK activity)",0.2
same,fold induction at 50 µM,"[2]; planktonic, cutoff for positive-scoring molecules 3-fold increase, read-out: AK-based Prestwick Library Screening Results, S. aureus (fold increase in extracellular AK activity)",0.6
same,fold induction at 50 µM,"E. coli; planktonic, cutoff for positive-scoring molecules 3-fold increase, read-out: AK-based Prestwick Library Screening Results, E. coli (fold increase in extracellular AK activity)",0.6
O=C(CCCN1CCC2(CC1)C(=O)NCN2c1ccccc1)c1ccc(F)cc1 [Spiperone],fold induction at 50 µM,"E. faecium; planktonic E. faecium, 384-well, cutoff for positive-scoring molecules 3-fold increase, read-out: AK-based Prestwick Library Screening Results: E. faecium (increase in extracellular AK activity)",1.2
same,fold induction at 50 µM,"[1]; planktonic A. baumannii, 384-well, cutoff for positive-scoring molecules 3-fold increase, read-out: AK-based Prestwick Library Screening Results: A. baumannii (increase in extracellular AK activity)",1.2
same,fold induction at 50 µM,"E. cloacae; planktonic E. cloacae, 384-well, cutoff for positive-scoring molecules 3-fold increase, read-out: AK-based Prestwick Library Screening Results: E. cloacae (increase in extracellular AK activity)",1.3
same,fold induction at 50 µM,"P. aeruginosa; planktonic P. aeruginosa, 384-well, cutoff for positive-scoring molecules 3-fold increase, read-out: AK-based Prestwick Library Screening Results: P. aeruginosa (increase in extracellular AK activity)",1.2
same,fold induction at 50 µM,"K. pneumoniae; planktonic K. pneumoniae, 384-well, cutoff for positive-scoring molecules 3-fold increase, read-out: AK-based Prestwick Library Screening Results: K. pneumoniae (increase in extracellular AK activity)",0.9
same,fold induction at 50 µM,"[2]; planktonic S. aureus, 384-well, cutoff for positive-scoring molecules 3-fold increase, read-out: AK-based Prestwick Library Screening Results: S. aureus (increase in extracellular AK activity)",1
same,fold induction at 50 µM,"E. coli; planktonic E. coli, 384-well, cutoff for positive-scoring molecules 3-fold increase, read-out: AK-based Prestwick Library Screening Results: E. coli (increase in extracellular AK activity)",1.3
CC(=O)S[C@@H]1CC2=CC(=O)CC[C@]2(C)[C@H]2CC[C@@]3(C)[C@@H](CC[C@@]34CCC(=O)O4)[C@H]12 [Spironolactone],fold induction at 50 µM,"E. faecium; 384-well format, cutoff for positive-scoring molecules 3-fold increase, read-out: AK-based Prestwick Library Screening Results, E. faecium (increase in extracellular AK activity)",1
same,fold induction at 50 µM,"[1]; 384-well format, cutoff for positive-scoring molecules 3-fold increase, read-out: AK-based Prestwick Library Screening Results, A. baumannii (increase in extracellular AK activity)",1.1
same,fold induction at 50 µM,"E. cloacae; 384-well format, cutoff for positive-scoring molecules 3-fold increase, read-out: AK-based Prestwick Library Screening Results, E. cloacae (increase in extracellular AK activity)",1.3
same,fold induction at 50 µM,"P. aeruginosa; 384-well format, cutoff for positive-scoring molecules 3-fold increase, read-out: AK-based Prestwick Library Screening Results, P. aeruginosa (increase in extracellular AK activity)",1
same,fold induction at 50 µM,"K. pneumoniae; 384-well format, cutoff for positive-scoring molecules 3-fold increase, read-out: AK-based Prestwick Library Screening Results, K. pneumoniae (increase in extracellular AK activity)",1
same,fold induction at 50 µM,"[2]; 384-well format, cutoff for positive-scoring molecules 3-fold increase, read-out: AK-based Prestwick Library Screening Results, S. aureus (increase in extracellular AK activity)",1.2
same,fold induction at 50 µM,"E. coli; 384-well format, cutoff for positive-scoring molecules 3-fold increase, read-out: AK-based Prestwick Library Screening Results, E. coli (increase in extracellular AK activity)",1.4
